Tests used:
[1] = test system: human pneumococcal reference serum 007sp (pooled sera of humans immunized with Pneumovax); assay type: binding
[2] = test system: mAb 1H8; assay: Surface plasmon resonance with captured mAb 1H8; assay type: binding, mouse; conditions: saccharide 18 at 20 μM, polysaccharides at 10 μg/mL in PBS
Description: Surface Plasmon Resonance was performed on a Biacore T100 instrument (GE Healthcare). Analysis was performed using the Mouse Antibody Capture Kit and Amine Coupling Kit (GE Healthcare) for immobilization. About 10000 response units (RU) of capture antibody were immobilized. A commercial mouse IgG (cat. no. 026502, Invitrogen, Carlsbad, US) was immobilized as a dummy in a reference cell (about 10000 RU). About 800 RU of mAb 1H8 were captured prior to every run using a mAb concentration of 50 μg/mL. Runs were performed using PBS as a running buffer and a flow rate of 30 μL/min with 60 s association and 120 s dissociation periods, respectively. Polysaccharides were used at a concentration of 10 μg/mL and saccharide 18 at 20 μM in PBS.

[3] = test system: mAb 1F1; assay type: binding, mouse
[4] = test system: mAb 1H8; assay type: binding, mouse

Compound	interaction with the antiserum from human vaccinated with Pneumovax23 [1]	recognition by antiserum from human vaccinated with Pneumovax23 (007sp) [1]	recognition by mAb 1H8 (surface plasmon resonance) [2]	binding of mAb 1F1 after inhibition with native SP8 polysaccharide [3]	recognition by mAb 1F1 [3]	binding of mAb 1H8 after inhibition with native SP8 polysaccharide [4]	recognition by mAb 1H8 [4]
NCCO[C@H]1OC(CO)[C@H](O[C@H]2OC(CO)[C@@H](O[C@@H]3OC(CO)[C@@H](O[C@@H]4OC(C(=O)O)[C@@H](O)[C@H](O)C4O)[C@H](O)C3O)[C@H](O)C2O)[C@H](O)C1O (stereo partly drawn) [saccharide 18, β-D-Glucopyranosyluronic acid-(1→4)β-D-glucoyranosyl-(1→4)-α-D-glucopyranosyl-(1→4)-α-D-galactopyranosyl-(1→1)-(2-amino)ethanol]	Robust interactions	recognized	specifically recognizes				
NCCO[C@H]1OC(CO)[C@H](O[C@H]2OC(CO)[C@@H](O[C@@H]3OC(CO)[C@@H](O[C@@H]4OC(C(=O)O)[C@@H](O[C@H]5OC(CO)[C@H](O)[C@H](O)C5O)[C@H](O)C4O)[C@H](O)C3O)[C@H](O)C2O)[C@H](O)C1O (stereo partly drawn) [saccharide 55, α-D-galactopyranosyl-(1→4)-β-D-glucopyranosyluronate-(1→4)-β-D-glucoyranosyl-α-D-glucopyranosyl-(1→4)-α-D-galactopyranosyl-(1→1)-(2-amino)ethanol]				abrogated	recognized with similar intensities	abrogated	recognized with similar intensities
NCCO[C@H]1OC(CO)[C@H](O[C@H]2OC(CO)[C@@H](O[C@@H]3OC(CO)[C@@H](O[C@@H]4OC(C(=O)O)[C@@H](O[C@H]5OC(CO)[C@H](O[C@H]6OC(CO)[C@@H](O)[C@H](O)C6O)[C@H](O)C5O)[C@H](O)C4O)[C@H](O)C3O)[C@H](O)C2O)[C@H](O)C1O (stereo partly drawn) [saccharide 57, α-D-glucopyranosyl-(1→4)-α-D-galactopyranosyl-(1→4)-β-D-glucopyranosyluronate-(1→4)-β-D-glucoyranosyl-(1→4)-α-D-glucopyranosyl-(1→4)-α-D-galactopyranosyl-(1→1)-(2-amino)ethanol]				abrogated	recognized with similar intensities	abrogated	recognized with similar intensities
NCCO[C@H]1OC(CO)[C@H](O[C@H]2OC(CO)[C@@H](O[C@@H]3OC(CO)[C@@H](O[C@@H]4OC(CO)[C@@H](O)[C@H](O)C4O)[C@H](O)C3O)[C@H](O)C2O)[C@H](O)C1O (stereo partly drawn) [saccharide 60, β-D-Glucopyranosyl-(1→4)β-D-glucoyranosyl-(1→4)-α-D-glucopyranosyl-(1→4)-α-D-galactopyranosyl-(1→1)-(2-amino)ethanol]					recognized with similar intensities		recognized with similar intensities
NCCO[C@H]1OC(CO)[C@H](O[C@H]2OC(CO)[C@@H](O[C@@H]3OC(CO)[C@@H](O)[C@H](O)C3O)[C@H](O)C2O)[C@H](O)C1O (stereo partly drawn) [saccharide 62, β-D-Glucoyranosyl-(1→4)-α-D-glucopyranosyl-(1→4)-α-D-galactopyranosyl-(1→1)-(2-amino)ethanol]					recognized with similar intensities		recognized with similar intensities

Reference: patent publication US10220083B2 (priority 2014, dated 2019)
